Laboratory results reported in ChEMBL document CHEMBL5728734, “2,6-dioxaspiro [4,5] decane derivatives and preparation method therefor and pharmaceutical applications thereof” (2021).
pEC50: −log10 of the molar value.

Target: Mu-type opioid receptor (Homo sapiens, UniProt P35372)
Test: Detection of MOR cAMP Agonist Activity: The experiment was performed using a cAMP detection kit from Cisbio (Cisbio #62AM4PEJ).

Sequence of Mu-type opioid receptor (P35372 whole entry): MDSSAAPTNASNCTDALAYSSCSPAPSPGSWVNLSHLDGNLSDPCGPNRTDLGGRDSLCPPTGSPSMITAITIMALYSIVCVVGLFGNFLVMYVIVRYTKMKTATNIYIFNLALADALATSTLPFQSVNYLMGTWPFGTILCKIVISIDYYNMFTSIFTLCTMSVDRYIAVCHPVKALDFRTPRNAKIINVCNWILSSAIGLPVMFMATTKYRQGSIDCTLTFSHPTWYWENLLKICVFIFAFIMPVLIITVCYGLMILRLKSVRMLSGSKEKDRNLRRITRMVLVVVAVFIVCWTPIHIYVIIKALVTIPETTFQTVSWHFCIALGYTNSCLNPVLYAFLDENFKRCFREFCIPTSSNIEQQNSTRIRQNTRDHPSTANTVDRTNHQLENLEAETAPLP

Structure (SMILES)	pEC50
c1ccc([C@]2(CCNCc3scc4c3CCC4)CCO[C@]3(CCOC3)C2)nc1	9.33
Fc1ccc([C@]2(CCNCc3scc4c3CCC4)CCO[C@]3(CCOC3)C2)nc1	10.00
c1ccc([C@]2(CCNCc3cc4c(s3)CCC4)CCOC3(CCCC3)C2)nc1	9.05
Cc1cccc(CNCC[C@@]2(c3ccc(F)cn3)CCO[C@]3(CCOC3)C2)c1	10.00
c1ccc([C@]2(CCN[C@H]3CCc4ccccc43)CCO[C@]3(CCOC3)C2)nc1	8.40
